Values of other authors in patent publication US5698219A, “Nanoemulsion of the oil water type, useful as an ophthalmic vehicle and process for the preparation thereof” (Laboratorios Cusi, S.A., priority 1994, dated 1997).

Conditions: EP 0 521 799 A1; benzalkonium chloride at 0.02% (w/v)

Compound | preservative effectiveness when used individually
C[CH2][Hg][S]c1ccccc1C(=O)[O-].[Na+] [thimerosal] | lack of effectiveness
benzalkonium chloride | lack of effectiveness
